This passage reports Kd results from patent publication US20250296959A1, “B7-H3 TARGETING PEPTIDES AND CONSTRUCTS THEREOF” (Mariana Oncology Inc., priority 2024, published 2025).

For this assay, the target named is T1, human 4lg B7-H3 (Homo sapiens, UniProt Q5ZPR3).
T1 sequence (Q5ZPR3 29-534): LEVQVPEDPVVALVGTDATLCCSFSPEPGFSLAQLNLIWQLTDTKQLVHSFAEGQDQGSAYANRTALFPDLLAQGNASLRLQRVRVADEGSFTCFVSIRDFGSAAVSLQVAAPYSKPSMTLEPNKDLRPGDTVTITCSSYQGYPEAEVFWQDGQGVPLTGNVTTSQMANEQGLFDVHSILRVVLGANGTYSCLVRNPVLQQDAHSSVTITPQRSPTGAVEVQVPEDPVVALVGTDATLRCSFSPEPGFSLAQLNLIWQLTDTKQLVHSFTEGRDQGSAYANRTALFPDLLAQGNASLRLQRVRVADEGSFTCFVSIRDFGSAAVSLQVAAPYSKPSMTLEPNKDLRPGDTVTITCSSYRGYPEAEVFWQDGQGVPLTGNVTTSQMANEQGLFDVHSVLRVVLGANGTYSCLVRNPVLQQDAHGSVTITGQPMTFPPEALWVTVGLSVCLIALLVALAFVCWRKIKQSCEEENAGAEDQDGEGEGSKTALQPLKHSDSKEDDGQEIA
The experiment in a line: Affinity determination by surface plasmon resonance (SPR) to 4Ig B7-H3.

[1] abbreviates: SPR KD—25° C., 4Ig B7-H3, 25° C. flow cell temperature.
Setting [2] is: SPR KD—37° C., 4Ig B7-H3, 37° C. flow cell temperature.

Where two headings read alike, the source gives them in different places. Starred links: 1 amine or outer side, 2 acyl side, 3 side chain; linkers in the order of their positions; H or OH if unused. Positions of bridges follow the written chain, without caps; N, C: chain ends. Non-standard residues stand in square brackets, D forms with d. Residues, ends and D or L forms follow the SMILES beside them. *: point of attachment. X12 = O=C(O)CN1CCN(CC(=O)O)CCN([C@@H](CCC(=O)*)C(=O)O)CCN(CC(=O)O)CC1; Ala(piperidin-4-yl) = O=C([C@H](CC1CCN([*:3])CC1)N[*:1])[*:2]; DOTA = O=C(O)CN1CCN(CC(=O)O)CCN(CC(=O)*)CCN(CC(=O)O)CC1; NH(CH2CH2O)4CH2CO = O=C(COCCOCCOCCOCCN[*:1])[*:2]; Tyr(SO2F) = N[C@@H](Cc1ccc(OS(=O)(=O)F)cc1)C(=O)O; Trp(5-F) = N[C@@H](Cc1c[nH]c2ccc(F)cc12)C(=O)O; X1 = C[C@@H](c1ccccc1)[C@H](N[*:1])C(=O)[*:2]; 1Nal = N[C@@H](Cc1cccc2ccccc12)C(=O)O; Ala(4-THP) = N[C@@H](CC1CCOCC1)C(=O)O; Val(3-OH) = CC(C)(O)[C@H](N)C(=O)O; Tle = CC(C)(C)[C@H](N)C(=O)O; hLeu = CC(C)CC[C@H](N)C(=O)O; Nva = CCC[C@H](N)C(=O)O

On to `CC(=O)N[C@@H](CCC(C)C)C(=O)N[C@@H](Cc1ccc(O)cc1)C(=O)N[C@H]1CSSC[C@@H](C(=O)N[C@@H](Cc2c[nH]c3ccc(F)cc23)C(=O)N[C@@H](Cc2ccccc2)C(=O)N[C@H](C(=O)N[C@H](CCCCNC(=O)CN2CCN(CC(=O)O)CCN(CC(=O)O)CCN(CC(=O)O)CC2)C(=O)O)C(C)(C)O)NC(=O)[C@H](Cc2ccc(OS(=O)(=O)F)cc2)NC(=O)[C@H](C(C)C)NC(=O)[C@H](CC(=O)O)NC(=O)[C@H](CC2CCOCC2)NC(=O)[C@H](CCCCN)NC(=O)CNC(=O)[C@H](C(C)(C)C)NC1=O` [Cpd #389, Ac-hLeu-Y-C-Tbg-G-K-ThpA-D-V-FSY-C-5FW-F-hydroxyVal-dLys(DOTA)-COOH] (Ac-[hLeu]YC[Tle]GK[Ala(4-THP)]DV[Tyr(SO2F)]C[Trp(5-F)]F[Val(3-OH)][dK](DOTA)-OH; disulfide 3-11), for which the dissociation constant Kd – broadly, the equilibrium constant for the complex coming apart – was below 1 nM.

In the case of `CCC[C@@H]1NC(=O)[C@@H](NC(=O)[C@H](Cc2ccc(O)cc2)NC(=O)[C@H](CCC(C)C)NC(C)=O)CSSC[C@@H](C(=O)N[C@@H](Cc2c[nH]c3ccc(F)cc23)C(=O)N[C@@H](Cc2ccccc2)C(=O)N[C@H](C(=O)N[C@H](CCCCNC(=O)CN2CCN(CC(=O)O)CCN(CC(=O)O)CCN(CC(=O)O)CC2)C(N)=O)[C@@H](C)O)NC(=O)[C@H](Cc2ccc(O)cc2)NC(=O)[C@H](C(C)C)NC(=O)[C@H](CC(=O)O)NC(=O)[C@H](Cc2ccc(O)cc2)NC(=O)[C@H](CCCCN)NC(=O)CNC1=O` [compound 184, Ac-hLeu-Y-C-Nva-G-K-Y-D-V-Y-C-5FW-F-Thr-dLys(DOTA)-CONH2] (Ac-[hLeu]YC[Nva]GKYDVYC[Trp(5-F)]FT[dK](DOTA)-NH2; disulfide 3-11), under setting [1], the Kd was in the range of 1 to 10 nM.

Under setting [2], `CC(=O)N[C@@H](CCC(C)C)C(=O)N[C@@H](Cc1ccc(O)cc1)C(=O)N[C@H]1CSSC[C@@H](C(=O)N[C@@H](Cc2c[nH]c3ccc(F)cc23)C(=O)N[C@@H](Cc2ccccc2)C(=O)N[C@H](C(=O)N[C@H](CCCCNC(=O)CC[C@@H](C(=O)O)N2CCN(CC(=O)O)CCN(CC(=O)O)CCN(CC(=O)O)CC2)C(=O)O)C(C)(C)O)NC(=O)[C@H](Cc2ccc(O)cc2)NC(=O)[C@H](C(C)C)NC(=O)[C@H](CC(=O)O)NC(=O)[C@H](CC2CCOCC2)NC(=O)[C@H](CC2CCNCC2)NC(=O)CNC(=O)[C@H](C(C)(C)C)NC1=O` [compound 439, Ac-hLeu-Y-C-Tbg-G-PipAla-ThpA-D-V-Y-C-5FW-F-hydroxyVal-dLys(S-DOTAGA)-COOH] (Ac-[hLeu]YC[Tle]G[Ala(piperidin-4-yl)][Ala(4-THP)]DVYC[Trp(5-F)]F[Val(3-OH)][dK](X12)-OH; disulfide 3-11) showed a Kd below 1 nM.

For `CC(C)CC[C@H](NC(=O)COCCOCCOCCOCCNC(=O)CN1CCN(CC(=O)O)CCN(CC(=O)O)CCN(CC(=O)O)CC1)C(=O)N[C@@H](Cc1ccc(O)cc1)C(=O)N[C@H]1CSSC[C@@H](C(=O)N[C@@H](Cc2c[nH]c3ccc(F)cc23)C(=O)N[C@@H](Cc2ccccc2)C(=O)N2CCC[C@H]2C(=O)O)NC(=O)[C@H](Cc2ccc(O)cc2)NC(=O)[C@H](C(C)C)NC(=O)[C@H](CC(=O)O)NC(=O)[C@H](CC2CCOCC2)NC(=O)[C@H](CCCCN)NC(=O)CNC(=O)[C@H](C(C)(C)C)NC1=O` [Cpd #306, DOTA-PEG4-hLeu-Y-C-Tbg-G-K-ThpA-D-V-Y-C-5FW-F-Pro-COOH] ({DOTA}-[NH(CH2CH2O)4CH2CO][hLeu]YC[Tle]GK[Ala(4-THP)]DVYC[Trp(5-F)]FP-OH; disulfide 4-12), under setting [1], the dissociation constant (Kd) was 10 to 100 nM.

Compound `CC(=O)N[C@@H](CCC(C)C)C(=O)N[C@@H](Cc1ccc(O)cc1)C(=O)N[C@H]1CSSC[C@@H](C(=O)N[C@@H](Cc2cccc3ccccc23)C(=O)N[C@H](C(=O)N[C@H](C(=O)N[C@H](CCCCNC(=O)CN2CCN(CC(=O)O)CCN(CC(=O)O)CCN(CC(=O)O)CC2)C(=O)O)C(C)(C)O)[C@@H](C)c2ccccc2)NC(=O)[C@H](Cc2ccc(O)cc2)NC(=O)[C@H](C(C)C)NC(=O)[C@H](CC(=O)O)NC(=O)[C@H](CC2CCOCC2)NC(=O)[C@H](CC2CCNCC2)NC(=O)CNC(=O)[C@H](C(C)(C)C)NC1=O` [compound 516, Ac-hLeu-Y-C-Tbg-G-PipAla-ThpA-D-V-Y-C-1Nal-[(2S, 3S)beta-Me-Phe]-hydroxyVal-dLys(DOTA)-COOH] (Ac-[hLeu]YC[Tle]G[Ala(piperidin-4-yl)][Ala(4-THP)]DVYC[1Nal][X1][Val(3-OH)][dK](DOTA)-OH; disulfide 3-11) had a Kd under setting [2] below 1 nM.
